“And” between values parts separate entries of the source, which are not always exact repeats. Equal values may be shown once. Values belong to the compound of their own block, whether it stands above or below them.
Test system: K98450-129-R-PDC complex spheroid growth, percent test/control
Test: Anticancer human tumor K98450-129-R-PDC patient-derived colon adenocarcinoma cell line growth inhibition [RAS]
Details: for viability, T/C: stronger effect = lower value
Excerpt: RAS pathway inhibitors in Combinations in Complex Spheroids
A high-throughput screen of multi-cell type tumor spheroids was designed to identify active combinations of RAS pathway inhibitors and targeted small molecules. Complex spheroids include a stromal component modeled by human endothelial cells (HUVEC) and fibroblasts modeled by human mesenchymal stem cells (MSCs). The concentration ranges selected for each drug and investigational agent were based upon clinically achievable concentrations if the clinical Cmax of the agent was known.
Compounds. The drugs and investigational agents: abemaciclib (NSC768073), cobimetinib (NSC768068), divarasib (GDC6063, NSC841802), docetaxel (NSC628503), GDC-1971 (RLY-1971, NSC841576), gemcitabine (NSC613327), inavolisib (NSC800729), ipatasertib (NSC767898), KB-0742 (NSC834161), MRTX-1133 (NSC836407), osimertinib (NSC779217), RMC-4630 (NSC839698), RMC-6236 (NSC851965), RMC-6291 (NSC852671), Ro-3306 (NSC812927), sapanisertib (NSC764658), SN-38 (NSC673596), staurosporine (NSC755774), SY5609 (NSC837396), and tovorafenib (DAY101, NSC766906), were obtained from the National Cancer Institute (NCI) Developmental Therapeutics Program Chemical Repository. The FDA-approved anticancer drug set is available from the NCI Developmental Therapeutics Program. […] The stock solutions were prepared in dimethyl sulfoxide (DMSO, Sigma-Aldrich, St. Louis, MO, cat. D2650) at 800-fold the tested concentration and stored at -70 degrees C prior to their use. All drugs and investigational agents were tested over a range starting from a high concentration at or near the clinical Cmax and decreasing in half-log increments. If the clinical Cmax for an agent had not been determined, the highest concentration tested was 10 microM.
Cell Culture. All cells were maintained in an incubator at 37 degrees C and 5% CO2 with 95% humidity. The PDC lines were cultured according to standard operating procedures established by the NCI PDMR. All PDCs were thawed and cultured in Matrigel-coated flasks prepared with a working solution of 1X Ham's F-12 nutrient mix, without supplementation (Invitrogen, Waltham, MA, cat. 11765054), 100 U/mL penicillin-streptomycin (Invitrogen, cat. 15140122), and 2.5% Matrigel (Corning Inc., Corning, NY, cat. 354248) for the first three passages. The 362531-283-R-J2-PDC and 782815-120-R-J1-PDC lines were cultured in 6C/Colon 1B media, which includes advanced DMEM/F-12 (Thermo Fisher Scientific, cat. 12634028), 10 mM HEPES (Thermo Fisher Scientific, cat. 15630080), 1X GlutaMAX supplement (Thermo Fisher Scientific, cat. 35050061), 0.1 mg/mL primocin (InvivoGen, San Diego, CA, cat. ant-pm-2), 10% defined fetal bovine serum, heat inactivated (HyClone Laboratories Inc., Logan, UT, cat. SH30070.03HI), 50% L-WRN conditioned media (ATCC, cat. CRL-3276), 1.25 mM N-Acetyl-L-cysteine (Sigma-Aldrich, cat. A9165), 10 mM nicotinamide (Sigma-Aldrich, cat. N0636), 1X B-27 supplement (Thermo Fisher Scientific, cat. 17504044), 1X N-2 supplement (Thermo Fisher Scientific, cat. 17502048), 50 ng/mL human EGF (Thermo Fisher Scientific, cat. PHG0311), and 10 microM Y-27632 dihydrochloride (Tocris Bioscience, cat. 1254). The K12877-001-R-J1-PDC line was cultured in 6I media, which includes all 6C/Colon 1B media plus 10 ng/mL human FGF-10 (PeproTech, cat. 100-26), 1 ng/mL human FGF-2 (PeproTech, cat. 100-18B), 1 µM prostaglandin E2 (Tocris Bioscience, cat. 2296), […] hydrocortisone (Sigma-Aldrich, cat. H4001), and […] bovine insulin (Sigma-Aldrich, cat. I6634). The K86415-001-R-J1-PDC line was cultured in 6D media, which includes all 6C/Colon 1B media components minus the L-WRN conditioned media. The 485176-168-R4-J1-PDC was cultured in PANC media, which includes all 6C/Colon 1B media plus 100 ng/mL human FGF-10 (PeproTech, cat. 100-26), 500 nM SB-431542 (Selleckchem, cat. S1067), and 10 nM gastrin (Tocris Bioscience, cat. 3006). […]
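Note: spheroids exposed to agents for seven days before the viability readout.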
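Throughout, for viability, T/C: luminescence used as a proxy for viable cell amount.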

Structure (SMILES): CC(=O)OC12COC1CC(O)C1(C)C(=O)C(O)C3=C(C)C(OC(=O)C(O)C(NC(=O)OC(C)(C)C)c4ccccc4)CC(O)(C(OC(=O)c4ccccc4)C21)C3(C)C (stereo unspecified)
- viability, T/C (compound 0.0316 µM): 104% [middle of 4 runs]
- viability, T/C (compound 0.316 µM): 65.8% [middle of 4 runs]
- viability, T/C (compound 1 µM): 50.8% [middle of 4 runs]
- viability, T/C (compound 3.16 µM): 42.5% [middle of 4 runs]
- viability, T/C (compound 10 µM): 43.9% [middle of 4 runs]

Structure (SMILES): CC1(O)CCCC1n1c(=O)c(C(F)F)cc2cnc(NC3CCN(S(C)(=O)=O)CC3)nc21 (stereo unspecified)
- viability, T/C (compound 0.0316 µM): 102% (2×) and 99.8% and 90.2%
- viability, T/C (compound 0.1 µM): 95.5% [middle of 4 runs]
- viability, T/C (compound 0.316 µM): 91.1% [middle of 4 runs]
- viability, T/C (compound 1 µM): 79% [middle of 4 runs]
- viability, T/C (compound 3.16 µM): 79% [middle of 4 runs]
- viability, T/C (compound 10 µM): 73.3% [middle of 4 runs]
- IC50 (curve of compound): > 10000 nM

Structure (SMILES): CCC(CC)c1cc(NC2CCC(N)C2)n2nccc2n1 (stereo unspecified)
- viability, T/C (compound 0.0316 µM): 99.1% [middle of 4 runs]
- viability, T/C (compound 0.316 µM): 99.2% [middle of 4 runs]
- viability, T/C (compound 1 µM): 102% (2×) and 98% and 94%
- viability, T/C (compound 3.16 µM): 90.9% [middle of 4 runs]
- viability, T/C (compound 10 µM): 17.7% [middle of 4 runs]
- IC50 (curve of compound): 5.89 µM [middle of 4 runs]

Structure (SMILES): Cc1nc(N2CCC3(CC2)COC(C)C3N)c(CO)nc1Sc1ccnc(N)c1Cl (stereo unspecified)
- viability, T/C (compound 0.0316 µM): 96.9% [middle of 4 runs]
- viability, T/C (compound 0.1 µM): 92.8% [middle of 4 runs]
- viability, T/C (compound 0.316 µM): 86.5% [middle of 4 runs]
- viability, T/C (compound 1 µM): 77.2% [middle of 4 runs]
- viability, T/C (compound 3.16 µM): 53.1% [middle of 4 runs]
- viability, T/C (compound 10 µM): 28.8% [middle of 4 runs]
- IC50 (curve of compound): 3.66 µM [middle of 4 runs]

Structure (SMILES): NC1c2ccccc2OC12CCN(c1cnc3c(N4CCCc5ncccc54)n[nH]c3n1)CC2 (stereo unspecified)
- viability, T/C (compound 0.0316 µM): 90.2% [middle of 4 runs]
- viability, T/C (compound 0.1 µM): 67.2% [middle of 4 runs]
- viability, T/C (compound 0.316 µM): 39.9% [middle of 4 runs]
- viability, T/C (compound 1 µM): 25.4% [middle of 4 runs]
- viability, T/C (compound 3.16 µM): 19.4% [middle of 4 runs]
- viability, T/C (compound 10 µM): 25% [middle of 4 runs]
- IC50 (curve of compound): 193 nM [middle of 4 runs]

Continued, in another order:

- IC50 (curve of compound): > 10000 nM
Structure (SMILES): CC(C)NCC(C(=O)N1CCN(c2ncnc3c2C(C)CC3O)CC1)c1ccc(Cl)cc1 (stereo unspecified)
- viability, T/C (compound 0.0316 µM): 103% [middle of 4 runs]
- viability, T/C (compound 0.1 µM): 97.1% [middle of 4 runs]
- viability, T/C (compound 0.316 µM): 104% (2×) and 111% and 88.1%
- viability, T/C (compound 1 µM): 102% [middle of 4 runs]
- viability, T/C (compound 3.16 µM): 104% [middle of 4 runs]
- viability, T/C (compound 10 µM): 101% [middle of 4 runs]

- IC50 (curve of compound): > 10000 nM
Structure (SMILES): C[C@@H](NC(=O)c1ncnc(N)c1Cl)c1ncc(C(=O)Nc2cc(C(F)(F)F)c(Cl)cn2)s1
- viability, T/C (compound 0.0316 µM): 110% [middle of 4 runs]
- viability, T/C (compound 0.316 µM): 122% [middle of 4 runs]
- viability, T/C (compound 1 µM): 126% [middle of 4 runs]
- viability, T/C (compound 10 µM): 106% [middle of 4 runs]

- IC50 (curve of first compound, second compound 0.0316 µM): 622 nM
- IC50 (curve of first compound, second compound 0.1 µM): 637 nM
- IC50 (curve of first compound, second compound 0.316 µM): 584 nM
- IC50 (curve of first compound, second compound 1 µM): 468 nM
- IC50 (curve of first compound, second compound 3.16 µM): 330 nM
- IC50 (curve of first compound, second compound 10 µM): 193 nM
Structure (SMILES): C=CC(=O)Nc1cc(Nc2nccc(-c3cn(C)c4ccccc34)n2)c(OC)cc1N(C)CCN(C)C + C#Cc1c(F)ccc2cc(O)cc(-c3ncc4c(N5CC6CCC(C5)N6)nc(OCC56CCCN5CC(F)C6)nc4c3F)c12
- viability, T/C (second compound 0.0316 µM, first compound 0.00316 µM): 107%
- viability, T/C (second compound 0.0316 µM, first compound 0.01 µM): 112%
- viability, T/C (second compound 0.0316 µM, first compound 0.0316 µM): 106%
- viability, T/C (second compound 0.0316 µM, first compound 0.1 µM): 100%
- viability, T/C (second compound 0.0316 µM, first compound 0.316 µM): 69.4%
- viability, T/C (second compound 0.0316 µM, first compound 1 µM): 36.4%
- viability, T/C (second compound 0.1 µM, first compound 0.00316 µM): 107%
- viability, T/C (second compound 0.1 µM, first compound 0.01 µM): 100%
- viability, T/C (second compound 0.1 µM, first compound 0.0316 µM): 103%
- viability, T/C (second compound 0.1 µM, first compound 0.1 µM): 101%
- viability, T/C (second compound 0.1 µM, first compound 0.316 µM): 79.6%
- viability, T/C (second compound 0.1 µM, first compound 1 µM): 30.9%
- viability, T/C (second compound 0.316 µM, first compound 0.00316 µM): 112%
- viability, T/C (second compound 0.316 µM, first compound 0.01 µM): 106%
- viability, T/C (second compound 0.316 µM, first compound 0.0316 µM): 97.9%
- viability, T/C (second compound 0.316 µM, first compound 0.1 µM): 95.8%
- viability, T/C (second compound 0.316 µM, first compound 0.316 µM): 78.6%
- viability, T/C (second compound 0.316 µM, first compound 1 µM): 26%
- viability, T/C (second compound 1 µM, first compound 0.00316 µM): 105%
- viability, T/C (second compound 1 µM, first compound 0.01 µM): 105%
- viability, T/C (second compound 1 µM, first compound 0.0316 µM): 92.6%
- viability, T/C (second compound 1 µM, first compound 0.1 µM): 95%
- viability, T/C (second compound 1 µM, first compound 0.316 µM): 66.3%
- viability, T/C (second compound 1 µM, first compound 1 µM): 16.6%
- viability, T/C (second compound 3.16 µM, first compound 0.00316 µM): 93.7%
- viability, T/C (second compound 3.16 µM, first compound 0.01 µM): 94.3%
- viability, T/C (second compound 3.16 µM, first compound 0.0316 µM): 94.6%
- viability, T/C (second compound 3.16 µM, first compound 0.1 µM): 89.7%
- viability, T/C (second compound 3.16 µM, first compound 0.316 µM): 51.5%
- viability, T/C (second compound 3.16 µM, first compound 1 µM): 11.5%
- viability, T/C (second compound 10 µM, first compound 0.00316 µM): 91.9%
- viability, T/C (second compound 10 µM, first compound 0.01 µM): 85.3%
- viability, T/C (second compound 10 µM, first compound 0.0316 µM): 90.1%
- viability, T/C (second compound 10 µM, first compound 0.1 µM): 79.3%
- viability, T/C (second compound 10 µM, first compound 0.316 µM): 28%
- viability, T/C (second compound 10 µM, first compound 1 µM): 10.6%
